Experimental findings from patent US12059422B2 (MEI Pharma, Inc., priority 2011, dated 2024) are described below.

For one assay, the target named is T1, PI3Kβ (Homo sapiens, UniProt P42338).
T1 construct: endogenous in cells; host or cells: PC-3 (ATCC #CRL-1435)
Description: ELISA assay for PI3Kβ: in-cell ELISA, phosphorylation of AKT (Ser473) in PC-3 cells. It is filed as cell-based. Particulars: for IC50: cellular, pAKT (Ser473), PC-3 cells, LPA stimulation, read-out: IC50 p110β; for α/β ratio: ratio of cellular IC50 values, Table 2. As to the method: Cellular PI3Kβ activity was determined by measuring the phosphorylation of AKT (Ser473) using an in-cell ELISA assay. PC-3 (prostate carcinoma) cells were obtained from ATCC (ATCC #CRL-1435). Growth medium was DMEM (CellGro #CV-10-013-CV) supplemented with 10% fetal bovine serum, 100 IU/mL penicillin, 100 μg/mL streptomycin, and 1×MEM non-essential amino acids. Phosphate buffered saline (PBS) contained 2.7 M NaCl, 54 mM KCl, 86 mM […] (dibasic, anhydrous), 28 mM […] (monobasic, anhydrous), pH 7.2, 10× stimulation mixture contained 50 μM LPA (Cayman #62215) diluted in serum-free DMEM medium (CellGro #CV-10-013-CV). Compounds for testing were dissolved and serially diluted in 100% DMSO (total of 10 concentrations), then diluted in serum-free DMEM to 2× final assay concentration. 2× fixative solution contained 8% formaldehyde (Amresco #M134) diluted in PBS. Permeabilization solution contained PBS supplemented with 0.1% Triton X-100. Blocking buffer was obtained from LiCor (LiCor #927-40000). Wash buffer contained PBS supplemented with 0.1% Tween-20. Primary antibody solution was rabbit anti-pAKT^S473 monoclonal antibody (Cell Signaling #4060) and mouse anti-total S6 (Santa Cruz #74459) diluted 1:500 and 1:2000, respectively, in blocking buffer. Secondary antibody solution was IRDye 800CW-conjugated goat anti-rabbit IgG (LiCor #926-32211) and IRDye 680LT-conjugated goat anti-mouse IgG (LiCor #926-68020) diluted 1:2000 and 1:1000, respectively, in blocking buffer.
PC-3 cells were subcultured in growth medium and seeded into flat, clear bottom, 96-well plates (Corning #3904) at 16000 cells/well, then incubated overnight in a 37° C., 5% CO2 incubator. Growth medium in plates was replaced with 100 μL/well serum-free DMEM and incubated overnight in a 37° C., 5% CO2 incubator. 50 μL/well of fresh serum-free DMEM was added to plates. Compound treatment was performed by adding 50 μL/well of 2× compound mixture to plates and incubating for 2 hrs at 37° C., 5% CO2, after which 11 μL/well of 10× stimulation mixture was added and plates were incubated for 10 min at 37° C., 5% CO2. Fixation was performed by adding 110 μL/well of 2× fixative solution to plates and incubating for 20 min at room temperature. Permeabilization was performed by replacing fixation solution with 150 μL/well permeabilization solution and incubating for 10 min at room temperature. Permeabilization was repeated (for a total of 2 times). Permeabilization solution was replaced with 100 μL/well blocking buffer and plates were incubated for 1 hr at room temperature, after which 100 μL/well of primary antibody solution was added and plates were incubated overnight at 4° C. Plates were washed with wash buffer, after which 100 μL/well of secondary antibody solution was added to the plates and incubated in the dark for 1 hr at room temperature. Plates were washed with wash buffer, followed by awash with PBS. After completely removing PBS, plates were scanned on the Licor Odyssey Imager. Images quantified using Licor Odyssey application software. IC50 values were determined by curve fitting using a Collaborative Drug Discovery database (www.collaborativedrug.com).
A general note: In an ELISA, binding on a coated surface is turned into a signal by an enzyme label.

Another assay deals with T2, PI3Kγ (Mus musculus, UniProt Q9JHG7).
T2 construct: endogenous in cells; host or cells: RAW 264.7 (ATCC #TIB-71)
Kind of assay: ELISA assay for PI3Kγ: in-cell ELISA, phosphorylation of AKT (Ser473) in RAW 264.7 cells. It counts as cell-based. Particulars: cellular, pAKT (Ser473), C5a stimulation, read-out: IC50 p110γ. As for the experimental part: PI3K gamma (PI3Kγ) activity was determined by measuring the phosphorylation of AKT (Ser473) using an in-cell ELISA assay. RAW 264.7 (mouse macrophage) cells were obtained from ATCC (ATCC #TIB-71). Growth medium was DMEM (CellGro #CV-10-013-CV) supplemented with 10% fetal bovine serum, 100 IU/mL penicillin, 100 μg/mL streptomycin, and 1×MEM non-essential amino acids. Phosphate buffered saline (PBS) contained 2.7 M NaCl, 54 mM KCl, 86 mM […] (dibasic, anhydrous), and 28 mM […] (monobasic, anhydrous) at pH 7.2. Stimulation mixture (10×) was 500 ng/mL recombinant human complement component C5a (R&D systems #2037-C5-025) diluted in serum-free DMEM medium (CellGro #CV-10-013-CV). Compounds for testing were dissolved and serially diluted in 100% DMSO (total of 10 concentrations), then diluted in serum-free DMEM to 2× final assay concentration. Fixative solution (2×) was 8% formaldehyde (Amresco #M134) diluted in PBS. Permeabilization solution was PBS supplemented with 0.10% Triton X-100. Blocking buffer was obtained from LiCor (LiCor #927-40000). Wash buffer was PBS supplemented with 0.1% Tween-20. Primary antibody solution was rabbit anti-pAKT^S473 monoclonal antibody (Cell Signaling #4060) and mouse anti-total S6 (Santa Cruz #74459) diluted 1:500 and 1:2000, respectively, in the blocking buffer. Secondary antibody solution was IRDye 800CW-conjugated goat anti-rabbit IgG (LiCor #926-32211) and IRDye 680LT-conjugated goat anti-mouse IgG (LiCor #926-68020) diluted 1:1000 and 1:2000, respectively, in the blocking buffer.
RAW 264.7 cells were subcultured in growth medium and seeded into flat, clear bottom, 96-well plates (Corning #3904) at 70000 cells/well, then incubated overnight in a 37° C., 5% CO2 incubator. Growth medium in plates was replaced with 100 μL/well serum-free DMEM and incubated overnight in a 37° C., 5% CO2 incubator. Fresh serum-free DMEM (50 μL/well) was added to plates. Compound treatment was performed by adding 50 μL/well of 2× compound mixture to plates and incubating for 2 hrs at 37° C., 5% CO2, after which 11 μL/well of 10× stimulation mixture was added and plates were incubated for 3 min at 37° C., 5% CO2. Fixation was performed by adding 110 μL/well of 2× fixative solution to plates and incubating for 20 min at room temperature. Permeabilization was performed by replacing fixation solution with 150 μL/well permeabilization solution and incubating for 10 min at room temperature. Permeabilization was repeated (for a total of 2 times). Permeabilization solution was replaced with 100 μL/well blocking buffer and plates were incubated for 1 hr at room temperature, after which 100 μL/well of primary antibody solution was added and plates were incubated overnight at 4° C. Plates were washed with wash buffer, after which 100 μL/well of secondary antibody solution was added to the plates and incubated in the dark for 1 hr at room temperature. Plates were washed with wash buffer, followed by awash with PBS. After completely removing PBS, plates were scanned on the Licor Odyssey Imager. Images were quantified using Licor Odyssey application software. IC50 values were determined by curve fitting using a Collaborative Drug Discovery database (www.collaborativedrug.com).

T2 sequence (Q9JHG7 whole entry): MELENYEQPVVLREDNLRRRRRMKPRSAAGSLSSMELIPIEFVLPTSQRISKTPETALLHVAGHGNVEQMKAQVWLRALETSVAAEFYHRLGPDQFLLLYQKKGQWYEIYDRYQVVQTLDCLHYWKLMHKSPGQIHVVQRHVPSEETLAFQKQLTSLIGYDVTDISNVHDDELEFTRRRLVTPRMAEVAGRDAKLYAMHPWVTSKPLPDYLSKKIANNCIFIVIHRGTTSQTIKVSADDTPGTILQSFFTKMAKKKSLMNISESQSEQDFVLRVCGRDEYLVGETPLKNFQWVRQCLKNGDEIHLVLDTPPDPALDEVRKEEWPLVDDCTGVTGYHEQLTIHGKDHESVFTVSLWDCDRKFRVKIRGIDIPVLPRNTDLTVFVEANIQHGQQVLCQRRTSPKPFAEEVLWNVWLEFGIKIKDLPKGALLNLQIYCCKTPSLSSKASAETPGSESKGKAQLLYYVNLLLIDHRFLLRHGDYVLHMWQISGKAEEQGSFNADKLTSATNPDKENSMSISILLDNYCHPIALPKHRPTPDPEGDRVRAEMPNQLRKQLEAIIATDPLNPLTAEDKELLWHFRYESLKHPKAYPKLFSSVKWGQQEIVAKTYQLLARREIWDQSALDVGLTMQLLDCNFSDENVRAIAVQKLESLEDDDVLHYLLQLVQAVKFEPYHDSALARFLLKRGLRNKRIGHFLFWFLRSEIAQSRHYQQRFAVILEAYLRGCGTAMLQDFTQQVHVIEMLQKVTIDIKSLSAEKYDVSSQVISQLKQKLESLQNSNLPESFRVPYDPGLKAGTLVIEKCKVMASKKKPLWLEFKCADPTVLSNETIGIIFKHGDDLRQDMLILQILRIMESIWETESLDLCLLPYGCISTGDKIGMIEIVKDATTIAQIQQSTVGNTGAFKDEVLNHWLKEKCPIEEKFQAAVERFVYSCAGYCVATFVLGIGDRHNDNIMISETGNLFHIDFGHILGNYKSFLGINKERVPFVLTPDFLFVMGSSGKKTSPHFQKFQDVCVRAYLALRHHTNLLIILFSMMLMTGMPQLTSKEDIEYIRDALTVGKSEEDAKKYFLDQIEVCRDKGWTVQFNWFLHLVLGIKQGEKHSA
T1 sequence (P42338 whole entry): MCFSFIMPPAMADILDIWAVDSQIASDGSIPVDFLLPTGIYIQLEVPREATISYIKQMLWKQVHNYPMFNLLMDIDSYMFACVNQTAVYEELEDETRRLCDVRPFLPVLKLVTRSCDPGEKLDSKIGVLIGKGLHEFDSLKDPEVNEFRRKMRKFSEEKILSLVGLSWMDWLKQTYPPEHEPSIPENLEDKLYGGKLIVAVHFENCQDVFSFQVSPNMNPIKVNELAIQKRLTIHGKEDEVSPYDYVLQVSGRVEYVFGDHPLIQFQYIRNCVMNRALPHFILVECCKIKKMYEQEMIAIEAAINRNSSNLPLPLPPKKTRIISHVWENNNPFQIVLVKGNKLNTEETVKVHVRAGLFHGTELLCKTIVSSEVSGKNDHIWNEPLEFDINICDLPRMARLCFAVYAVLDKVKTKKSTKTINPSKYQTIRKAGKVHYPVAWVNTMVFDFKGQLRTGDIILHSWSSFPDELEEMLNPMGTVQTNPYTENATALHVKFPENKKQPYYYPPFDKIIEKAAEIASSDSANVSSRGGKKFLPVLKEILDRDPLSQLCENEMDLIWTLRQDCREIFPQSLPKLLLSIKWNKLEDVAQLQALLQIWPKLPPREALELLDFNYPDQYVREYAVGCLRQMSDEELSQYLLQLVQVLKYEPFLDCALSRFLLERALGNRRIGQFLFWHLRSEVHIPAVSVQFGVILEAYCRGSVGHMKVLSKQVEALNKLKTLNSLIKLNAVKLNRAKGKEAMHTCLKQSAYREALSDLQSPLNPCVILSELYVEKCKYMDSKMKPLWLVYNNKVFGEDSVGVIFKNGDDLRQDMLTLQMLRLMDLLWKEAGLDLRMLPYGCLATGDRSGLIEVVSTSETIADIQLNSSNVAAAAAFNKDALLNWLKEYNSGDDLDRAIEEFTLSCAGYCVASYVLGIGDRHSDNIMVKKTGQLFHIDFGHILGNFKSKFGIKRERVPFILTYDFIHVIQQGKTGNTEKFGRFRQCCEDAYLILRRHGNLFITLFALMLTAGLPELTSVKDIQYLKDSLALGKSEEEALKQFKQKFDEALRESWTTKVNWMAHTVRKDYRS
T1 sequence (P27986 whole entry partner): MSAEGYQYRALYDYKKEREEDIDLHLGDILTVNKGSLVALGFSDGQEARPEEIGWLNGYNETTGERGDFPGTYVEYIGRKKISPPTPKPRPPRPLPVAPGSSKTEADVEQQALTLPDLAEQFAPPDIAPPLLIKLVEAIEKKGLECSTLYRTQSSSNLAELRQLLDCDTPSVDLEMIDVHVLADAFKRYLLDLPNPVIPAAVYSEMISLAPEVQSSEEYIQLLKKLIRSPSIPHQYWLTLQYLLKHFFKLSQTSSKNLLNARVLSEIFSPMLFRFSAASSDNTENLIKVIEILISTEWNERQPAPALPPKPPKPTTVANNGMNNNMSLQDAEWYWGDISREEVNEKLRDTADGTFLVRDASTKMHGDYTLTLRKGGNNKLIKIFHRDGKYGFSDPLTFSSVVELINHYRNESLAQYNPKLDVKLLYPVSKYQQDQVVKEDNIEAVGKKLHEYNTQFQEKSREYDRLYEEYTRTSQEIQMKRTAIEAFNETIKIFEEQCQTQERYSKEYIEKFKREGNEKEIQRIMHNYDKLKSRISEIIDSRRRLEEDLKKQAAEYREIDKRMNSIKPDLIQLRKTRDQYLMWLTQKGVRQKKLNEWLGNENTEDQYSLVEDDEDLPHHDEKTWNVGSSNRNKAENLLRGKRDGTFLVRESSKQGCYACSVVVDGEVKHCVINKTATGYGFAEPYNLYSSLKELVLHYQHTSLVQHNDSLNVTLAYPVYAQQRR

Usually IC50 stands for the midpoint of a concentration-inhibition curve. `CC(C)(Cc1ccccc1)Nc1nc(N2CCOCC2)nc(-n2c(C(F)F)nc3ccccc32)n1` [Compound A14, 4-(2-(difluoromethyl)-1H-benzo[d]imidazol-1-yl)-N-(2-methyl-1-phenylpropan-2-yl)-6-morpholino-1,3,5-triazin-2-amine]: at PI3Kβ, the IC50 is no more than 0.1 µM and the α/β ratio entry was “B’”. Besides, the IC50 at PI3Kγ fell in the range of 0.2 to 0.5 µM.
The corresponding values for `CC(C)(Cc1ccccc1F)Nc1nc(N2CCOCC2)nc(-n2c(C(F)F)nc3ccccc32)n1` [Compound A15, 4-(2-(difluoromethyl)-1H-benzo[d]imidazol-1-yl)-N-(1-(2-fluorophenyl)-2-methylpropan-2-yl)-6-morpholino-1,3,5-triazin-2-amine] are no more than 0.1 µM, “C’” and 0.2 to 0.5 µM.
The corresponding values for `CC(C)(Cc1ccccc1Cl)Nc1nc(N2CCOCC2)nc(-n2c(C(F)F)nc3ccccc32)n1` [Compound A16, 4-(2-(difluoromethyl)-1H-benzo[d]imidazol-1-yl)-N-(1-(2-chlorophenyl)-2-methylpropan-2-yl)-6-morpholino-1,3,5-triazin-2-amine] are no more than 0.1 µM, “B’” and greater than 0.5 µM.
The corresponding values for `Cc1ccccc1CC(C)(C)Nc1nc(N2CCOCC2)nc(-n2c(C(F)F)nc3ccccc32)n1` [Compound A18, 4-(2-(difluoromethyl)-1H-benzo[d]imidazol-1-yl)-N-(2-methyl-1-(o-tolyl)propan-2-yl)-6-morpholino-1,3,5-triazin-2-amine] are no more than 0.1 µM, “C’” and 0.2 to 0.5 µM.
Regarding `COc1ccccc1CC(C)(C)Nc1nc(N2CCOCC2)nc(-n2c(C(F)F)nc3ccccc32)n1` [Compound A19, 4-(2-(difluoromethyl)-1H-benzo[d]imidazol-1-yl)-N-(1-(2-methoxyphenyl)-2-methylpropan-2-yl)-6-morpholino-1,3,5-triazin-2-amine], the IC50 on PI3Kβ was no more than 0.1 µM.
In the case of `COc1cccc(CC(C)(C)Nc2nc(N3CCOCC3)nc(-n3c(C(F)F)nc4ccccc43)n2)c1` [Compound A21, 4-(2-(difluoromethyl)-1H-benzo[d]imidazol-1-yl)-N-(1-(3-methoxyphenyl)-2-methylpropan-2-yl)-6-morpholino-1,3,5-triazin-2-amine], on PI3Kβ, the IC50 fell in the range of 0.1 to 0.2 µM and the α/β ratio result is on record as “A’”. Also, the IC50 at PI3Kγ lay within 0.2 to 0.5 µM.
On to `CC(C)(Cc1ccc(F)cc1)Nc1nc(N2CCOCC2)nc(-n2c(C(F)F)nc3ccccc32)n1` [Compound A22, 4-(2-(difluoromethyl)-1H-benzo[d]imidazol-1-yl)-N-(1-(4-fluorophenyl)-2-methylpropan-2-yl)-6-morpholino-1,3,5-triazin-2-amine], for which the IC50 on PI3Kβ is no more than 0.1 µM; at PI3Kγ, 0.2 to 0.5 µM. Moreover, the α/β ratio result at PI3Kβ was “C’”.
For the compound `CC(C)(Cc1cccc2ccccc12)Nc1nc(N2CCOCC2)nc(-n2c(C(F)F)nc3ccccc32)n1` [Compound A27, 4-(2-(difluoromethyl)-1H-benzo[d]imidazol-1-yl)-N-(2-methyl-1-(naphthalen-1-yl)propan-2-yl)-6-morpholino-1,3,5-triazin-2-amine], the IC50 at PI3Kβ was no more than 0.1 µM.
Same read-out and setting: in the case of `CC(C)(Cc1ccccc1-c1ccncc1)Nc1nc(N2CCOCC2)nc(-n2c(C(F)F)nc3ccccc32)n1` [Compound A33, 4-(2-(difluoromethyl)-1H-benzo[d]imidazol-1-yl)-N-(2-methyl-1-(2-(pyridin-4-yl)phenyl)propan-2-yl)-6-morpholino-1,3,5-triazin-2-amine] it was no more than 0.1 µM.
As to `CN1CCC(c2ccccc2CC(C)(C)Nc2nc(N3CCOCC3)nc(-n3c(C(F)F)nc4ccccc43)n2)CC1` [Compound A35, 4-(2-(difluoromethyl)-1H-benzo[d]imidazol-1-yl)-N-(2-methyl-1-(2-(1-methylpiperidin-4-yl)phenyl)propan-2-yl)-6-morpholino-1,3,5-triazin-2-amine], on PI3Kβ, the IC50 is no more than 0.1 µM and the α/β ratio entry is on record as “A’”. In addition, on PI3Kγ, the IC50 lay within 0.2 to 0.5 µM.
The corresponding values for `CC(C)(Cc1cccc(F)c1)Nc1nc(N2CCOCC2)nc(-n2c(C(F)F)nc3ccccc32)n1` [Compound A39, 4-(2-(difluoromethyl)-1H-benzo[d]imidazol-1-yl)-N-(1-(3-fluorophenyl)-2-methylpropan-2-yl)-6-morpholino-1,3,5-triazin-2-amine] are no more than 0.1 µM, “A’” and 0.1 to 0.2 µM.
Take `CC(C)(Cc1ccccc1-c1cccnc1)Nc1nc(N2CCOCC2)nc(-n2c(C(F)F)nc3ccccc32)n1` [Compound A40, 4-(2-(difluoromethyl)-1H-benzo[d]imidazol-1-yl)-N-(2-methyl-1-(2-(pyridin-3-yl)phenyl)propan-2-yl)-6-morpholino-1,3,5-triazin-2-amine]: the IC50 on PI3Kβ is no more than 0.1 µM; at PI3Kγ, 0.2 to 0.5 µM. For the same compound, at PI3Kβ, the α/β ratio entry was “A’”.
The corresponding values for `COc1cc(-c2ccccc2CC(C)(C)Nc2nc(N3CCOCC3)nc(-n3c(C(F)F)nc4ccccc43)n2)ccn1` [Compound A41, 4-(2-(difluoromethyl)-1H-benzo[d]imidazol-1-yl)-N-(1-(2-(2-methoxypyridin-4-yl)phenyl)-2-methylpropan-2-yl)-6-morpholino-1,3,5-triazin-2-amine] are 0.1 to 0.2 µM, greater than 0.5 µM and “B’”.
